Measured values reported in ChEMBL document CHEMBL1201862, “PubChem BioAssay data set” (2004).
Active and inactive are the calls of the source.

Experiments:
BJ [1] = test: cytotoxicity toward BJ-TERT fibroblasts, dose response, cell-based, RAS-independent, luminescence (AID 1933); format: functional; conditions: Homo sapiens
BJ [2] = test: cells; format: functional, cell-based; conditions: Homo sapiens
BJ [3] = test: cytotoxicity toward BJ-TERT-LT-ST fibroblasts, dose response, cell-based, RAS-independent, luminescence (AID 1935); format: functional; conditions: Homo sapiens;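 note: BJ fibroblasts immortalized with TERT plus LT and ST oncogenes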
[4] = cytotoxicity toward DRD oncogenic fibroblasts, dose response, cell-based, non-viral oncogenic, luminescence (AID 1934); format: functional; conditions: Homo sapiens
[5] = target: Delta-type opioid receptor (Homo sapiens, UniProt P41143); test: Counterscreen for agonists of heterodimerization of the mu 1 (OPRM1) and delta 1 (OPRD1) opioid receptors: Luminescence-based cell-based high throughput dose response assay to identify agonists of OPRD1 homodimerization. [Related pubchem assays (depositor defined):AID504326, AID504355, AID504692, AID504904, AID504905]; format: functional
Chain of Delta-type opioid receptor (P41143 whole entry): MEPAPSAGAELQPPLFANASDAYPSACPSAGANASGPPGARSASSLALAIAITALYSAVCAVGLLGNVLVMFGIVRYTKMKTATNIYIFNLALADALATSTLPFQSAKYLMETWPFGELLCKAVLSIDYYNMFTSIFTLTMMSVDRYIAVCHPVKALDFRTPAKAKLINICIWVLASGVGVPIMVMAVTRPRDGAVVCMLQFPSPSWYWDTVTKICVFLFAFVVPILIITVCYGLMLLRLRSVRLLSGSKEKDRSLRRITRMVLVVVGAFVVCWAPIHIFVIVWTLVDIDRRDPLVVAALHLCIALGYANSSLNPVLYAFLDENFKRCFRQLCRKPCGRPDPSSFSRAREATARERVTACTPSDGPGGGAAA

Mu-type opioid receptor = Mu-type opioid receptor (Homo sapiens, UniProt P35372); test: Counterscreen for agonists of heterodimerization of the mu 1 (OPRM1) and delta 1 (OPRD1) opioid receptors: Luminescence-based cell-based high throughput dose response assay to identify agonists of OPRM1 homodimerization.; format: functional;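 note: U2OS cells expressing OPRM1 and beta-arrestin as split beta-galactosidase partners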
Chain of Mu-type opioid receptor (P35372 whole entry): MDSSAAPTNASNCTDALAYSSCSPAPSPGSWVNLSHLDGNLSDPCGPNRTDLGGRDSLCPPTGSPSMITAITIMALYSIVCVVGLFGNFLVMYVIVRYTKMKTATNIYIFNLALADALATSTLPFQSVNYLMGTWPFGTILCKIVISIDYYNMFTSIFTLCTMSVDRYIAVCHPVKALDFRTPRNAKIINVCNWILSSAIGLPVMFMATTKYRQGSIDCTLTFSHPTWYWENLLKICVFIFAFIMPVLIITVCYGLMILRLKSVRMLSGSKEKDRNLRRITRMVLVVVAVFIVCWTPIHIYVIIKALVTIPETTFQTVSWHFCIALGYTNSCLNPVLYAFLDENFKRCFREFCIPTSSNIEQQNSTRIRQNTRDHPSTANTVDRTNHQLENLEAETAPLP

[6] = target: 5-hydroxytryptamine receptor 5A (Homo sapiens, UniProt P47898); test: Counterscreen for agonists of OPRM1-OPRD1 heterodimerization: luminescence-based cell-based high throughput dose response assay to identify agonists of 5-hydroxytryptamine (serotonin) 5A receptor (HTR5A). [Related pubchem assays (depositor defined):AID504326, AID504355, AID504692, AID504904, AID504905]; format: functional
Chain of 5-hydroxytryptamine receptor 5A (P47898 whole entry): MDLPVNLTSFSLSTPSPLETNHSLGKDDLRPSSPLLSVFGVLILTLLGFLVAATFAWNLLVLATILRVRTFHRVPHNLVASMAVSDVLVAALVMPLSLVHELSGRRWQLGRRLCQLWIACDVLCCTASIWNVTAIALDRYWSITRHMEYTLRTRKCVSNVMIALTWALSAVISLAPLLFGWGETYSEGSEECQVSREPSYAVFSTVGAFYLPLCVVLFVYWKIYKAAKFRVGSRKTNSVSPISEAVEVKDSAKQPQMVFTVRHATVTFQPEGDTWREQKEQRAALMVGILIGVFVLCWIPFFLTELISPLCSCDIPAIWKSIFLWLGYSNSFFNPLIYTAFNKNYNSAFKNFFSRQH

HEK293 = test: inhibitors of LMP1-driven NF-kB reporter, dose response, cell-based, HEK293, luciferase, cherry-pick (AID 588343); format: functional; conditions: Homo sapiens
[7] = target: T1, Latent membrane protein 1 (Human herpesvirus 4 (strain B95-8), UniProt P03230); test: TES1-eGFP NF-kB reporter inhibition versus Tet-On dsRED, dose response, selectivity assay for LMP1 NF-kB inhibitor project, imaging, HEK293T, dual-color eGFP/dsRED, cherry-picks (AID 588398); format: functional, cell-based
T1 sequence (P03230 whole entry): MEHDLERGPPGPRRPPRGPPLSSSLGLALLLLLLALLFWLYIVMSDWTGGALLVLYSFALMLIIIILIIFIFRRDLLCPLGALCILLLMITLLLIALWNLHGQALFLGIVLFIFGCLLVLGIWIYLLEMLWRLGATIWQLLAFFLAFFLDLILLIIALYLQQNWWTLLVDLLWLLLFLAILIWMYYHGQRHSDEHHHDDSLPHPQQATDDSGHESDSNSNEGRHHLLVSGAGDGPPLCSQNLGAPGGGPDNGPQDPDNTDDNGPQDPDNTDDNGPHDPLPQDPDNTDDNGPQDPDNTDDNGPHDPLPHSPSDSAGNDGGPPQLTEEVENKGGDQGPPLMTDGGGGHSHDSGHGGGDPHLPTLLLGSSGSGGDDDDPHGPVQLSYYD

Melanocortin receptor 4 [8] = target: T2, Melanocortin receptor 4 (Homo sapiens, UniProt P32245); format: functional, cell-based;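 note: Cell-based assay with luminescence read-out, confirmatory dose-response testing for agonist activity of biased ligands at MC4R; human U2OS cells with tagged receptor and beta-arrestin; potency of agonists that increase receptor coupling to beta-arrestin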
T2 sequence (P32245 whole entry): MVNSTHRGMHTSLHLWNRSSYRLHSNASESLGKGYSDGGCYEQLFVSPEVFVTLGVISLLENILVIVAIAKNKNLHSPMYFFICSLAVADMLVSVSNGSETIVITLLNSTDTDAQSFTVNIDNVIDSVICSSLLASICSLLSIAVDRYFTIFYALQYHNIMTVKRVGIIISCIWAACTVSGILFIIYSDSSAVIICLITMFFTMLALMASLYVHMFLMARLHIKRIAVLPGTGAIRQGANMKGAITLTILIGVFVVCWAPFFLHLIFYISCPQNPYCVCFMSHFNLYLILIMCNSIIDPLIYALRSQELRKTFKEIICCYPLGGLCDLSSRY

Melanocortin receptor 4 [9] = target: T2, Melanocortin receptor 4; test: MC4R antagonist potency on cAMP, dose response, cell-based, TR-FRET, biased antagonists (AID 602298); format: functional;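 note: antagonist potency against agonist-stimulated cAMP production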
[10] = nonselective inhibitors of cellular cAMP signaling, dose response, counter-screen for MC4R biased antagonist project, cell-based, TR-FRET cAMP detection (AID 602305); format: functional;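 note: U2OS cells stimulated with forskolin near its EC80 as the cAMP inducer; potency is for inhibition of forskolin-stimulated cAMP signaling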
[11] = NIH/3T3 fibroblast cytotoxicity, dose response, cytotoxicity control for T. cruzi growth inhibitor project, cell-based, cherry-pick samples, set 2 (AID 651817); format: functional; conditions: NIH3T3
[12] = target: T3, Polyadenylate-binding protein 1 (Homo sapiens, UniProt P11940); test: PABP1 MLLE–PAM2 interaction inhibitors, dose response, miRNA deadenylation inhibitor project, biochemical, fluorescence polarization, Cy5-PAM2 peptide, secondary (AID 602260); format: functional; conditions: read-out: IC50_Mean
T3 sequence (P11940 whole entry): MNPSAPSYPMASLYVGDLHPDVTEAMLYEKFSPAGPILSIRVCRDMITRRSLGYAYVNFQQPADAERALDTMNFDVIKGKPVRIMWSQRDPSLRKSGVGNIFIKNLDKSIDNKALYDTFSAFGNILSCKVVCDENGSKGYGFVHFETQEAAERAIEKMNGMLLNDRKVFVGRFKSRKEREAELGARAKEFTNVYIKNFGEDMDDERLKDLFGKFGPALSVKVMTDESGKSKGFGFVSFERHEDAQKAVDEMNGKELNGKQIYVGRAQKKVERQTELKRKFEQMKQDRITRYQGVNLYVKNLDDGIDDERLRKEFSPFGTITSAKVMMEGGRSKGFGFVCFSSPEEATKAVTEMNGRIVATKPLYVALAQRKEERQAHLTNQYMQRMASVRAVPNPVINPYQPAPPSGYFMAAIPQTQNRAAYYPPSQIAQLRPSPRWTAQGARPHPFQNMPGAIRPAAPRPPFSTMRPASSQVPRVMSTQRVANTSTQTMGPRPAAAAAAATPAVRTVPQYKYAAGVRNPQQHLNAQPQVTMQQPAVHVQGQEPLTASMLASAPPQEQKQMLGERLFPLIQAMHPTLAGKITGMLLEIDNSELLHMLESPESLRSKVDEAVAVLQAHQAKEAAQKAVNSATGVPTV

[13] = target: T3, Polyadenylate-binding protein 1; test: PABP1 MLLE–PAM2 binding inhibitor potency, dose response, biochemical, fluorescence polarization, FITC-PAM2 peptide (AID 602259); format: functional; conditions: read-out: IC50_Mean
Interleukin-8 [14] = target: T4, Interleukin-8 (Homo sapiens, UniProt P10145); test: Dose Response confirmation of uHTS small molecule hits for cystic fibrosis induced NFkb Inhibitors in a TNFa-induced IL8 counterscreen.; format: functional; conditions: read-out: IC50_Mean
T4 sequence (P10145 whole entry): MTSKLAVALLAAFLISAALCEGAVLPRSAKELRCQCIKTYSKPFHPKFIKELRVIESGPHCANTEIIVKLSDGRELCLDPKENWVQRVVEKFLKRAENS

Interleukin-8 [15] = target: T4, Interleukin-8; test: Dose Response confirmation of uHTS small molecule hits for cystic fibrosis induced NFkb Inhibitors in a PAF-induced IL8 counterscreen.; format: functional; conditions: read-out: IC50_Mean

In the case of `CCc1ccc2nc(N(CCCN(C)C)C(=O)c3ccc(S(=O)(=O)N(C)C4CCCCC4)cc3)sc2c1`, the EC50 (BJ [1]) is reported as 6.21 µM (inconclusive), the EC50 (BJ [2]) is reported as 13.4 µM (active) and the EC50 (BJ [3]) is reported as 7.58 µM (active). The EC50 [4] was 7.91 µM (active), the EC50 [5] was > 92.5 µM (inactive) and the EC50 (Mu-type opioid receptor) was > 92.5 µM (inactive). For the same compound, the EC50 [6] was > 92.5 µM (inactive).
With `O=C1NC(c2cccc(OCc3ccccc3)c2)Nc2ccccc21` (stereo not given) the AC50 (HEK293) was 84 µM (active) and the AC50 [7] was 2.82 µM (active).
In the case of `CSCCC(/C(O)=C(\C#N)c1nc2ccccc2[nH]1)N1C(=O)c2ccccc2C1=O` (stereo not given), the EC50 [5] is reported as > 92.4 µM (inactive), the EC50 (Mu-type opioid receptor) is reported as > 92.4 µM (inactive) and the EC50 [6] is reported as > 92.4 µM (inactive).
In the case of `CCCCCCCCNS(=O)(=O)CCNCCc1ccccc1`, the EC50 (Melanocortin receptor 4 [8]) is reported as > 89.1 µM (inactive).
With `COc1cc([N+](=O)[O-])ccc1NC(=S)NC(=O)CC(C)(C)C` the IC50 (Melanocortin receptor 4 [9]) was > 64.6 µM (inactive) and the IC50 [10] was > 64.6 µM (inactive).
With `Cc1ccc(S(=O)(=O)Nc2ccc3c(c2)CC(=O)N([C@@H](C)CO)C[C@@H](C)[C@H](CN(C)Cc2ccccc2)O3)cc1` the AC50 [11] was 39 µM (inactive).
For `O=S1(=O)CCC(NC(=S)SCCOc2ccccc2)C1` (stereo not given), the IC50 [12] was > 66 µM (inactive), the IC50 [13] was > 66 µM (inactive) and the IC50 (Interleukin-8 [14]) was 3.66 µM (active). The IC50 (Interleukin-8 [15]) was 3.07 µM (active).
